Test results taken from publication PMC5062114, “Dual-targeting anti-angiogenic cyclic peptides as potential drug leads for cancer therapy” (Scientific Reports, 2016).
Like-named read-outs stand apart in the source and are kept apart here. Bridge positions count the residues as written; N and C are the ends. Square brackets hold non-standard residues; d marks the D form. Ends that are not written are not given here. Peptide text beside a SMILES is read from it.

Columns and labels:
Assay in all cases: cells
[1] = test system: HT-29
Method: (§1) HUVECs (human umbilical vein endothelial cells) were cultured in EGM™-2 BulletKit™ supplemented with SingleQuots™ (supplements: growth factors, cytokines, antibiotics; Lonza) and 10% FBS (catalog no. FFBS-500; Scientifix). Both HT-29 and MCF-7 cells were cultured in 10% FBS/DMEM (Dulbecco’s Modified Eagle Medium) with 1% penicillin–streptomycin (5000 U/mL; Life Technologies), whereas PC3 cells (prostate cancer cells) were cultured in 10% FBS/RPMI (Roswell Park Memorial Institute) 1640 with 1% penicillin–streptomycin (5000 U/mL; Life Technologies). All cells were maintained at 37 °C in 5% CO2.
(§2) Cell cytotoxicity and proliferation assays were performed using similar methods to those described by Chan et al.[45]. All cells were maintained using the media conditions described above, and passages two to ten were used for all cell lines. For all cell lines, 5.0 × 10^3 cells/well (100 μL) and 1.5 × 10^3 cells/well (100 μL) were used for cell cytotoxicity and cell proliferation assays, respectively. All peptides (10 μL, at final concentrations ranging from 0.05–100 μM) and drugs, which included cilengitide, octreotide and sunitinib (at final concentrations ranging from 0.00001–100 μM), were used in both assays. Triton X-100 (0.1% (v/v); 10 μL) was used as a positive control. Cells were treated with fresh media the day after plating, before the addition of peptides, followed by a subsequent 2-h and 48-h incubation for cell cytotoxicity and cell proliferation, respectively. After different incubation periods, 3-(4, 5-dimethylthiazolyl-2)-2,5-diphenyltetrazolium bromide (MTT) (10 μL; 5 mg/mL in PBS) was added, and cells were incubated for a further 4 h. The supernatant was then removed and 100 μL DMSO added to solubilize formazan salts. Experiments were performed in triplicate. Cell numbers were recorded at 600 nm. All data represent average mean ± SD.

[2] = test system: HUVEC
Method: as §1, §2

[3] = test system: MCF-7
Method: as §1, §2

[4] = test system: PC3
Method: as §1, §2

[5] = read-out: IC50 ± S.D., 48 hours, HT-29, cell proliferation inhibition, MTT, 48-h incubation, 1.5 × 10^3 cells/well, triplicate, mean ± SD
[6] = read-out: IC50 ± S.D., 48 hours, HUVEC, cell proliferation inhibition, MTT, 48-h incubation, 1.5 × 10^3 cells/well, triplicate, mean ± SD
[7] = read-out: IC50 ± S.D., 48 hours, MCF-7, cell proliferation inhibition, MTT, 48-h incubation, 1.5 × 10^3 cells/well, triplicate, mean ± SD
[8] = read-out: IC50 ± S.D., 48 hours, PC3, cell proliferation inhibition, MTT, 48-h incubation, 1.5 × 10^3 cells/well, triplicate, mean ± SD

IC50 ([1]; 4 h) [µM] | IC50 ([3]; 4 h) [µM] | IC50 ([4]; 4 h) [µM] | Compound | IC50 [1, 5] [µM] | IC50 [2, 6] [µM] | IC50 [3, 7] [µM] | IC50 [4, 8] [µM] | IC50 ([2]; 4 h) [µM]
 |  |  | CC[C@H](C)[C@@H]1NC(=O)[C@@H]2CCCN2C(=O)[C@@H]2CCCN2C(=O)[C@H]([C@@H](C)CC)NC(=O)[C@H](CO)NC(=O)[C@H](CCCCN)NC(=O)[C@H]([C@@H](C)O)NC(=O)[C@@H]2CSSC[C@H](NC1=O)C(=O)N[C@@H](CCCNC(=N)N)C(=O)N[C@@H](Cc1ccccc1)C(=O)N[C@H](Cc1c[nH]c3ccccc13)C(=O)N[C@@H](CCCCN)C(=O)N[C@@H]([C@@H](C)O)C(=O)N[C@@H](Cc1c[nH]c3ccccc13)C(=O)N2 [SFTI-SST-02] (cyclo(CRF[dW]KTWCTKSIPPI); disulfide 1-8) | 43.29 ± 0.04 | > 100 | 55.13 ± 0.07 | > 100 | 
 |  |  | CC[C@H](C)[C@@H]1NC(=O)[C@H](CCCNC(=N)N)NC(=O)[C@H](CCCNC(=N)N)NC(=O)[C@H](CCCNC(=N)N)NC(=O)[C@H](CCCCN)NC(=O)[C@H](CCCNC(=N)N)NC(=O)[C@H](CCCNC(=N)N)NC(=O)[C@@H]2CSSC[C@H](NC1=O)C(=O)N[C@@H](Cc1ccccc1)C(=O)N1CCC[C@H]1C(=O)N[C@@H](CC(=O)O)C(=O)NCC(=O)N[C@@H](CCCNC(=N)N)C(=O)N2 [SFTI-polyR-L1] (cyclo(CFPDGRCRRKRRRI); disulfide 1-7) | 82.27 ± 0.13 | > 100 | 28.72 ± 0.15 | > 100 | 
 |  |  | CC[C@H](C)[C@@H]1NC(=O)[C@@H]2CCCN2C(=O)[C@@H]2CCCN2C(=O)[C@H]([C@@H](C)CC)NC(=O)[C@H](CO)NC(=O)[C@H](CCCCN)NC(=O)[C@H]([C@@H](C)O)NC(=O)[C@@H]2CSSC[C@H](NC1=O)C(=O)N[C@@H](CCCNC(=N)N)C(=O)N[C@@H](CCCNC(=N)N)C(=O)N[C@@H](CCCCN)C(=O)N[C@@H](CCCNC(=N)N)C(=O)N[C@@H](CCCNC(=N)N)C(=O)N[C@@H](CCCNC(=N)N)C(=O)N2 [SFTI-polyR-L2] (cyclo(CRRKRRRCTKSIPPI); disulfide 1-8) | > 100 | > 100 | 41.84 ± 0.07 | > 100 | 
> 100 | > 100 | > 100 | C[C@@H](O)[C@H](NC(=O)[C@H](CCCCN)NC(=O)[C@@H](Cc1c[nH]c2ccccc12)NC(=O)[C@H](Cc1ccccc1)NC(=O)[C@@H](N)CCCNC(=N)N)C(=O)N[C@@H](Cc1c[nH]c2ccccc12)C(=O)O [SST-02, reference compound] (H-RF[dW]KTW-OH) |  |  |  |  | > 100
 |  |  | YHLNQPF [PEDF, reference compound] | > 100 | 19.4 ± 0.08 | > 100 | > 100 | 
